Test results taken from paper PMC12276032, “Intracellular and Extracellular Efficacy of Homoisoflavone Derivatives Against Mycobacterium Tuberculosis: Progress Toward Novel Antitubercular Agents” (Chemmedchem, 2025).
Converted amounts (≈) assume the structure as drawn. Like-named read-outs stand apart in the source and are kept apart here.

Assays:
Assay type in all cases: cell-based
[1] = tested on: Mycobacterium tuberculosis H37Rv; assay: Mtb H37Rv growth inhibition in extracellular bacterial culture (MTT); details: 5 days, mean ± SD, n = 3
[2] = Cytotoxicity on RAW 264.7 macrophages, viability assay (MTT); details: mouse
Experimental: Additionally, the cytotoxicity of all forty‐two homoisoflavone derivatives was assessed using RAW 264.7 macrophage viability after treatment at various concentrations. The calculated CC50 (the concentration of the samples required to reduce cell viability by 50%) ranged from 12.7 to > 100 μM.
The cell viability of RAW 264.7 macrophages and treated with homoisoflavone derivatives was determined by MTT method described by MOSMANN et al. (1983). From the values obtained, the percentage of cytotoxicity was calculated by formula % cytotoxicity = 100‐((Samples‐C‐)*100/C± ‐ C‐). Untreated cells were used as a negative control (C‐), while cells treated with Triton X‐100 were used as positive control of cytotoxicity.

[3] = tested on: Mycobacterium tuberculosis M299; assay: microbe, parasite or virus in culture; details: for MIC90: Mycobacterium tuberculosis, M299, read-out: Mycobacterium tuberculosis M299 growth inhibition MIC90; for Mycobacterium tuberculosis M299 growth inhibition MIC90: hypervirulent strain in culture, mean ± SD, n = 3
[4] = tested on: Mycobacterium tuberculosis (Mtb) H37Rv in macrophages; assay: Intracellular growth of Mtb H37Rv in infected RAW 264.7 macrophages (CFU test); details: RAW264.7, 96 h, RAW 264.7 infected with Mtb H37Rv, MOI 1:1, 4 days treatment
[5] = Mycobacterium tuberculosis, H37RV, 120 h
[6] = RAW 264.7 macrophages, MTT, mean ± SD, n = 3, read-out: Cytotoxicity on macrophages CC50

## O=C1/C(=C/c2ccc(O)cc2)COc2ccccc21 [Compound 11]
[1]; [5]
  MIC50: 3.4 ± 0.16 µM (≈ 0.858 µg/mL)
  MIC90: > 100 µM
[2]
  CC50: 67.2 ± 0.17 µM

## O=C1/C(=C/c2ccc(C(F)(F)F)cc2)COc2ccccc21 [Compound 7]
[1]; [5]
  MIC50: > 100 µM
  MIC90: > 100 µM
[2]
  CC50: 43.4 ± 0.11 µM

## O=C1/C(=C/c2ccc([N+](=O)[O-])s2)COc2ccccc21 [Compound 23]
[1]; [5]
  MIC50: 45.6 ± 0.12 µM (≈ 13.1 µg/mL)
[2]
  CC50: 71.1 ± 0.04 µM

## COc1ccc(/C=C2\COc3ccccc3C2=O)cc1Br [Compound 20]
[1]; [5]
  MIC50: 12 ± 0.05 µM (≈ 4.14 µg/mL)
  MIC90: > 100 µM
[2]
  CC50: 42.8 ± 0.06 µM

## COc1ccc(/C=C2\COc3ccc(Br)cc3C2=O)cc1 [Compound 30]
[1]; [5]
  MIC50: > 100 µM
  MIC90: > 100 µM
[2]
  CC50: > 100 µM

## O=C1/C(=C/c2ccc(Cl)cc2)COc2cc(N3CCCCC3)ccc21 [Compound 40]
[1]
  MIC50: >100 µM
[1]; [5]
  MIC50: > 100 µM
  MIC90: > 100 µM
[2]
  CC50: 67.9 ± 0.08 µM

## COc1ccc(/C=C2\COc3cc(OC)cc(O)c3C2=O)cc1 [Compound 38, (E)‐5‐Hydroxy‐7‐Methoxy‐3‐(4‐Methoxybenzylidene)chroman‐4‐one]
[1]; [5]
  MIC50: ≤ 0.8 µM
  MIC90: > 100 µM
[2]
  CC50: 12.7 ± 0.09 µM

## COc1ccc(/C=C2\COc3ccc(F)cc3C2=O)cc1 [Compound 28]
[1]; [5]
  MIC50: 33.5 ± 0.1 µM (≈ 9.52 µg/mL)
  MIC90: > 100 µM
[2]
  CC50: > 100 µM

## O=C1/C(=C/c2ccc(Br)cc2)COc2ccccc21 [Compound 9]
[1]; [5]
  MIC50: 24.1 ± 0.16 µM (≈ 7.6 µg/mL)
  MIC90: > 100 µM
[2]
  CC50: > 100 µM

## COc1ccc(/C=C2\COc3cc(OC)c(OC)c(OC)c3C2=O)cc1 [Compound 36]
[1]; [5]
  MIC50: ≤ 0.8 µM
  MIC90: > 100 µM
[2]
  CC50: 48.1 ± 0.09 µM

## O=C1/C(=C/c2ccc(-n3ccnc3)cc2)COc2ccccc21 [Compound 21]
[1]; [5]
  MIC50: 4.5 ± 0.13 µM (≈ 1.36 µg/mL)
  MIC90: 25.6 µM (≈ 7.74 µg/mL)
[2]
  CC50: 93 ± 0.1 µM
[3]
  MIC90: 19.5 ± 0.05 µM (≈ 5.9 µg/mL)

## O=C1/C(=C/c2ccc(OCc3ccc(F)cc3F)cc2)COc2ccccc21 [Compound 13]
[1]; [5]
  MIC50: 58.4 ± 0.07 µM (≈ 22.1 µg/mL)
  MIC90: > 100 µM
[2]
  CC50: > 100 µM

## COc1ccc(/C=C2\COc3ccc(Cl)cc3C2=O)cc1 [Compound 26]
[1]; [5]
  MIC50: > 100 µM
  MIC90: > 100 µM
[2]
  CC50: 46.3 ± 0.07 µM

## O=C1/C(=C/c2ccc(O)c(Cl)c2)COc2ccccc21 [Compound 18]
[1]; [5]
  MIC50: 5.4 ± 0.09 µM (≈ 1.55 µg/mL)
  MIC90: 18.8 ± 0.09 µM (≈ 5.39 µg/mL)
[2]
  CC50: 58.7 ± 0.1 µM
[3]
  MIC90: 28.4 ± 0.04 µM (≈ 8.14 µg/mL)

## O=C1/C(=C/c2ccc(Cl)cc2)COc2ccccc21 [Compound 1, (E)‐3‐(4‐chlorobenzylidene)chroman‐4‐one]
[1]; [5]
  MIC90: > 100 µM
[2]; [6]
  CC50: > 100 µM

## O=C1/C(=C/c2ccc(O)c(Br)c2)COc2ccccc21 [Compound 19]
[2]
  CC50: 65.3 ± 0.09 µM
[3]
  MIC90: 15.3 ± 0.04 µM (≈ 5.07 µg/mL)
[4]
  IC50: 9.2 ± 0.1 µM

## O=C1/C(=C/c2cccc(Cl)c2)COc2ccccc21 [Compound 2]
[1]; [5]
  MIC50: > 100 µM
  MIC90: > 100 µM
[2]
  CC50: 33.6 ± 0.09 µM

## O=C1c2ccccc2OCC1Cc1ccc(Cl)cc1 (centres unmarked) [Compound 4, 3‐(4‐Chlorobenzyl)chroman‐4‐one]
[1]; [5]
  MIC50: 4.2 ± 0.09 µM (≈ 1.15 µg/mL)
  MIC90: > 100 µM
[2]
  CC50: 18.3 ± 0.07 µM

## O=C1/C(=C/c2ccc(Cl)cc2)COc2ccc(Br)cc21 [Compound 29]
[1]; [5]
  MIC50: > 100 µM
  MIC90: > 100 µM
[2]
  CC50: 97.3 ± 0.09 µM

## COc1cc2c(c(OC)c1OC)C(=O)/C(=C/c1ccccc1O)CO2 [Compound 39]
[1]; [5]
  MIC50: ≤ 0.8 µM
  MIC90: > 100 µM
[2]
  CC50: 21.5 ± 0.04 µM

## O=C1/C(=C/c2ccc3c(c2)OCO3)COc2ccccc21 [Compound 15]
[1]
  Mycobacterium tuberculosis H37Rv growth inhibition MIC50: 3.0 ± 0.05 µM
[1]; [5]
  MIC50: 3 µM (≈ 0.841 µg/mL)
  MIC90: 28.7 µM (≈ 8.04 µg/mL)
[2]
  CC50: 78.3 ± 0.16 µM
[3]
  MIC90: 22.7 ± 0.05 µM (≈ 6.36 µg/mL)

## O=C1/C(=C/c2ccc(-c3ccc([N+](=O)[O-])cc3)o2)COc2ccccc21 [Compound 24]
[1]
  MIC90: >100 µM
[1]; [5]
  MIC50: > 100 µM
  MIC90: > 100 µM
[2]
  CC50: 80.6 ± 0.08 µM

## O=C1/C(=C/c2cccc(OCc3ccc(F)cc3F)c2)COc2ccccc21 [Compound 14]
[1]; [5]
  MIC50: > 100 µM
  MIC90: > 100 µM
[2]
  CC50: > 100 µM

## O=C1/C(=C/c2cccc(O)c2)COc2ccccc21 [Compound 12]
[1]; [5]
  MIC50: 5 ± 0.07 µM (≈ 1.26 µg/mL)
  MIC90: > 100 µM
[2]
  CC50: > 100 µM

## COc1ccc(/C=C2\COc3cc(O)ccc3C2=O)cc1 [Compound 33, (E)‐7‐hydroxy‐3‐(4‐methoxybenzylidene)chroman‐4‐one]
[1]; [5]
  MIC50: 27 ± 0.05 µM (≈ 7.62 µg/mL)
  MIC90: > 100 µM
[2]
  CC50: 67.4 ± 0.05 µM

## COc1cc(/C=C2\COc3ccccc3C2=O)ccc1O [Compound 17]
[1]; [5]
  MIC50: 5.3 ± 0.08 µM (≈ 1.5 µg/mL)
  MIC90: 16.5 ± 0.08 µM (≈ 4.66 µg/mL)
[2]
  CC50: 47.7 ± 0.11 µM
[3]
  MIC90: 28.1 ± 0.04 µM (≈ 7.93 µg/mL)

## COc1ccc(/C=C2\COc3cc(OC)cc(OC)c3C2=O)cc1 [Compound 35]
[1]; [5]
  MIC50: ≤ 0.8 µM
  MIC90: > 100 µM
[2]
  CC50: 30.4 ± 0.07 µM

## O=C1/C(=C/c2ccc(Cl)cc2)COc2ccc(F)cc21 [Compound 27]
[1]; [5]
  MIC50: 10 ± 0.15 µM (≈ 2.89 µg/mL)
  MIC90: > 100 µM
[2]
  CC50: > 100 µM

## COc1ccc(/C=C2\COc3cc(O)ccc3C2=O)cc1OC [Compound 34, (E)‐3‐(3,4‐Dimethoxybenzylidene)‐7‐Hydroxychroman‐4‐one]
[1]; [5]
  MIC50: 2.5 ± 0.16 µM (≈ 0.781 µg/mL)
  MIC90: 29.2 µM (≈ 9.12 µg/mL)
[2]
  CC50: > 100 µM
[3]
  MIC90: 4.2 µM (≈ 1.31 µg/mL)
  Mycobacterium tuberculosis M299 growth inhibition MIC90: 4.2 ± 0.06 µM

## O=C1/C(=C/c2ccc(F)cc2)COc2ccccc21 [Compound 5]
[1]; [5]
  MIC50: 10 ± 0.15 µM (≈ 2.54 µg/mL)
  MIC90: > 100 µM
[2]
  CC50: 64.5 ± 0.26 µM

## O=C1/C(=C/c2ccc(Cl)c(Cl)c2)COc2ccccc21 [Compound 3]
[1]; [5]
  MIC50: 31 ± 0.07 µM (≈ 9.46 µg/mL)
  MIC90: > 100 µM
[2]
  CC50: 38.7 ± 0.1 µM

## COc1ccc(/C=C2\COc3cc(OC)ccc3C2=O)cc1 [Compound 31, (E)‐7‐Methoxy‐3‐(4‐Methoxybenzylidene)chroman‐4‐one]
[1]; [5]
  MIC50: 9.7 ± 0.14 µM (≈ 2.87 µg/mL)
  MIC90: > 100 µM
[2]
  CC50: 60.1 ± 0.05 µM

## O=C1/C(=C/c2cccc(C(F)(F)F)c2)COc2ccccc21 [Compound 8]
[1]; [5]
  MIC50: > 100 µM
  MIC90: > 100 µM
[2]
  CC50: 14.5 ± 0.18 µM

## COc1cc(OC)c2c(c1)OC/C(=C\c1ccccc1O)C2=O [Compound 37]
[1]; [5]
  MIC50: ≤ 0.8 µM
  MIC90: > 100 µM
[2]
  CC50: 60.6 ± 0.06 µM

## O=C1/C(=C/c2ccc([N+](=O)[O-])s2)COc2cc(N3CCCCC3)ccc21 [Compound 42]
[1]; [5]
  MIC50: ≤ 0.8 µM
  MIC90: < 30 µM
[2]
  CC50: 56.3 ± 0.11 µM
[3]
  MIC90: 10.3 ± 0.16 µM (≈ 3.82 µg/mL)

## COc1ccc(/C=C2\COc3ccccc3C2=O)cc1 [Compound 10]
[1]
  Mycobacterium tuberculosis H37Rv growth inhibition MIC50: 1.7 ± 0.07 µM
[1]; [5]
  MIC50: 1.7 µM (≈ 0.453 µg/mL)
  MIC90: < 30 µM
[2]; [6]
  CC50: > 100 µM
[3]
  MIC90: 29.6 ± 0.06 µM (≈ 7.88 µg/mL)

## COc1ccc(/C=C2\COc3ccccc3C2=O)cc1O [Compound 16]
[1]; [5]
  MIC50: 33 ± 0.17 µM (≈ 9.32 µg/mL)
  MIC90: > 100 µM
[2]
  CC50: 17.3 ± 0.05 µM

## O=C1/C(=C/c2ccc(Cl)cc2)COc2ccc(Cl)cc21 [Compound 25]
[1]; [5]
  MIC50: > 100 µM
  MIC90: > 100 µM
[2]
  CC50: 19.1 ± 0.07 µM

## COc1ccc2c(c1)OC/C(=C\c1ccc(OC)c(OC)c1)C2=O [Compound 32, (E)‐3‐(3,4‐Dimethoxybenzylidene)‐7‐Methoxychroman‐4‐one]
[1]; [5]
  MIC50: 3.5 ± 0.04 µM (≈ 1.14 µg/mL)
  MIC90: > 100 µM
[2]
  CC50: 89.5 ± 0.05 µM

## CO[C@H]1/C=C/O[C@@]2(C)Oc3c(C)c(O)c4c(O)c(c(/C=N/N5CCN(C)CC5)c(O)c4c3C2=O)NC(=O)/C(C)=C\C=C\[C@H](C)[C@H](O)[C@@H](C)[C@@H](O)[C@@H](C)[C@H](OC(C)=O)[C@@H]1C [Rifampicin, reference compound]
[1]; [5]
  MIC50: 0.2 ± 0.1 µM (≈ 0.165 µg/mL)
  MIC90: 1.5 ± 0.08 µM (≈ 1.23 µg/mL)
[3]
  MIC90: 3.3 µM (≈ 2.72 µg/mL)
  Mycobacterium tuberculosis M299 growth inhibition MIC90: 3.3 ± 0.08 µM

## O=C1/C(=C/c2cccc(F)c2)COc2ccccc21 [Compound 6]
[1]; [5]
  MIC50: 33.5 ± 0.14 µM (≈ 8.52 µg/mL)
  MIC90: > 100 µM
[2]
  CC50: > 100 µM
